Measurements taken from the supplement of paper PMC10307832.

Experiments:
Assay in all cases: relative viability (nuclei count vs DMSO), 5 days (fraction); higher = more cells survive
CX-5461 + Olaparib = compound: Cc1cnc(CNC(=O)c2c(=O)c3ccc(N4CCCN(C)CC4)nc3n3c2sc2ccccc23)cn1 [CX-5461] + O=C(c1cc(Cc2n[nH]c(=O)c3ccccc23)ccc1F)N1CCN(C(=O)C2CC2)CC1 [Olaparib] (partner 8 µM)
Procedure, shortened: (§1)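 Lung cancer cell lines were seeded in 1536-well plates and dosed by pin tool the next day, with either a single drug or a fixed anchor-drug dose combined with five library-drug doses (not always all listed) spaced in √10 steps. Five days later, one step fixed the cells and stained their nuclei (final 0.05% Triton X-100, 1% formaldehyde, 1 ug/ml Hoechst), and nuclei were counted on 4× images. Relative viability is the nuclei count in treated wells divided by the count in vehicle wells, and each value is the median of duplicate plates.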

IMD-0354 + Trametinib = compound: O=C(Nc1cc(C(F)(F)F)cc(C(F)(F)F)c1)c1cc(Cl)ccc1O [IMD-0354] + CC(=O)Nc1cccc(-n2c(=O)n(C3CC3)c(=O)c3c(Nc4ccc(I)cc4F)n(C)c(=O)c(C)c32)c1 [Trametinib] (partner 0.02 µM)
Procedure, shortened: as §1

IMD-0354 + OSI-027 = compound: O=C(Nc1cc(C(F)(F)F)cc(C(F)(F)F)c1)c1cc(Cl)ccc1O [IMD-0354] + COc1cccc2cc(-c3nc([C@H]4CC[C@H](C(=O)O)CC4)n4ncnc(N)c34)[nH]c12 [OSI-027] (partner 0.5 µM)
Procedure, shortened: as §1

IMD-0354 + Crizotinib = compound: O=C(Nc1cc(C(F)(F)F)cc(C(F)(F)F)c1)c1cc(Cl)ccc1O [IMD-0354] + C[C@@H](Oc1cc(-c2cnn(C3CCNCC3)c2)cnc1N)c1c(Cl)ccc(F)c1Cl [Crizotinib] (partner 1 µM)
Procedure, shortened: as §1

Row | Cell Line | relative viability (CX-5461 + Olaparib; first compound 0.01 µM) | relative viability (CX-5461 + Olaparib; first compound 0.03162 µM) | relative viability (CX-5461 + Olaparib; first compound 0.1 µM) | relative viability (CX-5461 + Olaparib; first compound 0.3162 µM) | relative viability (CX-5461 + Olaparib; first compound 1 µM) | relative viability (IMD-0354 + Trametinib; first compound 0.04 µM) | relative viability (IMD-0354 + Trametinib; first compound 0.1265 µM) | relative viability (IMD-0354 + Trametinib; first compound 0.4 µM) | relative viability (IMD-0354 + Trametinib; first compound 1.265 µM) | relative viability (IMD-0354 + Trametinib; first compound 4 µM) | relative viability (IMD-0354 + OSI-027; first compound 0.04 µM) | relative viability (IMD-0354 + OSI-027; first compound 0.1265 µM) | relative viability (IMD-0354 + OSI-027; first compound 0.4 µM) | relative viability (IMD-0354 + OSI-027; first compound 1.265 µM) | relative viability (IMD-0354 + OSI-027; first compound 4 µM) | relative viability (IMD-0354 + Crizotinib; first compound 0.04 µM) | relative viability (IMD-0354 + Crizotinib; first compound 0.1265 µM) | relative viability (IMD-0354 + Crizotinib; first compound 0.4 µM) | relative viability (IMD-0354 + Crizotinib; first compound 1.265 µM) | relative viability (IMD-0354 + Crizotinib; first compound 4 µM)
1 | NCI-H1355 | 0.758 | 0.811 | 0.689 | 0.736 | 0.714 | 0.446 | 0.398 | 0.402 | 0.331 | 0.244 | 0.382 | 0.45 | 0.372 | 0.258 | 0.234 | 1.29 | 1.04 | 0.956 | 0.97 | 0.242
2 | H3255 | 0.558 | 0.543 | 0.578 | 0.531 | 0.497 | 0.612 | 0.664 | 0.472 | 0.49 | 0.311 | 0.549 | 0.59 | 0.585 | 0.488 | 0.302 | 0.781 | 0.885 | 0.555 | 0.338 | 0.285
3 | NCI-H1993 | 1.19 | 1.1 | 1.1 | 0.976 | 1.01 | 0.53 | 0.353 | 0.557 | 0.507 | 0.401 | 0.576 | 0.504 | 0.562 | 0.522 | 0.482 | 0.907 | 0.824 | 0.658 | 0.508 | 0.557
4 | NCI-H1734 | 0.662 | 0.67 | 0.633 | 0.553 | 0.511 | 0.713 | 0.703 | 0.483 | 0.366 | 0.209 | 0.625 | 0.662 | 0.44 | 0.281 | 0.137 | 0.803 | 0.685 | 0.4 | 0.422 | 0.244
5 | HOP-62 | 0.315 | 0.355 | 0.287 | – | 0.254 | 0.405 | 0.394 | 0.403 | 0.42 | 0.17 | 0.954 | 0.782 | 0.516 | 0.295 | 0.204 | 0.999 | 1.09 | 0.926 | 0.546 | 0.168
6 | LOU-NH91 | 0.973 | 0.992 | 0.901 | 0.524 | 0.704 | 0.824 | 0.675 | 0.406 | 0.177 | 0.239 | 0.77 | 0.692 | 0.335 | 0.27 | 0.198 | 0.754 | 0.732 | 0.538 | 0.345 | 0.287
7 | ChaGo-K-1 | 0.381 | 0.403 | 0.433 | 0.442 | 0.378 | 0.918 | 0.872 | 0.68 | 0.718 | 0.233 | 0.725 | 0.514 | 0.384 | 0.269 | 0.232 | 1.16 | 1.26 | 0.788 | 0.398 | 0.433
8 | NCI-H2228 | 0.75 | 0.773 | 0.518 | 0.55 | 0.188 | 0.472 | 0.454 | 0.43 | 0.171 | 0.232 | 0.586 | 0.431 | 0.348 | 0.23 | 0.142 | 0.389 | 0.442 | 0.405 | 0.179 | 0.22
9 | PC-14 | 0.241 | 0.252 | 0.125 | 0.213 | 0.0738 | 0.945 | 0.826 | 0.301 | 0.359 | 0.109 | 0.972 | 0.805 | 0.284 | 0.115 | 0.0708 | 0.988 | 0.92 | 0.357 | 0.387 | 0.179
10 | NCI-H1437 | 0.654 | 0.643 | 0.528 | 0.648 | 0.567 | 0.538 | 0.486 | 0.325 | 0.194 | 0.191 | 0.915 | 0.763 | 0.544 | 0.22 | 0.25 | 1.02 | 0.905 | 0.548 | 0.238 | 0.207
11 | NCI-H460 | 0.463 | 0.451 | 0.286 | 0.39 | 0.0729 | 0.196 | 0.173 | 0.0878 | 0.0353 | 0.0199 | 0.886 | 0.626 | 0.225 | 0.0286 | 0.0262 | 0.892 | 0.808 | 0.243 | 0.142 | 0.0357
12 | NCI-H1666 | 0.708 | 0.731 | 0.748 | 0.696 | 0.676 | 0.738 | 0.849 | 0.719 | 0.872 | 0.523 | 0.86 | 0.841 | 0.641 | 0.415 | 0.302 | 0.867 | 1.02 | 0.94 | 0.251 | 0.151
13 | NCI-H1651 | 0.188 | 0.175 | 0.191 | 0.163 | 0.159 | 0.803 | 0.729 | 0.729 | 0.877 | 0.238 | 0.667 | 0.667 | 0.495 | 0.199 | 0.0772 | 0.765 | 0.87 | 0.575 | 0.609 | 0.128
14 | NCI-H1755 | 0.85 | 0.929 | 0.819 | 0.806 | 0.818 | 0.858 | 0.796 | 0.694 | 0.665 | 0.228 | 0.65 | 0.782 | 0.528 | 0.354 | 0.302 | 0.925 | 0.965 | 0.46 | 0.31 | 0.17
15 | NCI-H661 | 0.832 | 0.754 | 0.662 | 0.602 | 0.534 | 0.532 | 0.512 | 0.397 | 0.308 | 0.256 | 0.812 | 0.66 | 0.577 | 0.264 | 0.25 | 1.07 | 1.2 | 0.869 | 0.524 | 0.317
16 | HARA | 0.82 | 0.67 | 0.793 | 0.876 | 0.556 | 0.772 | 0.517 | 0.632 | 0.225 | 0.262 | 0.576 | 0.542 | 0.179 | 0.148 | 0.0924 | 1.05 | 0.921 | 0.53 | 0.158 | 0.208
17 | NCI-H596 | 0.719 | 0.715 | 0.626 | 1.13 | 0.676 | 0.843 | 0.649 | 0.639 | 0.659 | 0.512 | 0.881 | 0.812 | 0.429 | 0.793 | 0.246 | 0.928 | 1.04 | 0.858 | 0.955 | 0.451
18 | NCI-H23 | 0.376 | 0.303 | 0.326 | 0.333 | 0.287 | 0.456 | 0.344 | 0.28 | 0.144 | 0.162 | 0.538 | 0.631 | 0.341 | 0.195 | 0.19 | 0.719 | 0.522 | 0.376 | 0.378 | 0.264
19 | LCLC-97TM1 | 0.313 | 0.503 | 0.466 | 0.333 | 0.298 | 0.186 | 0.178 | 0.141 | 0.214 | 0.113 | 0.519 | 0.489 | 0.265 | 0.186 | 0.148 | – | 0.432 | 0.211 | 0.265 | 0.146
20 | EPLC-272H | 0.712 | 0.871 | 0.785 | 0.74 | 0.493 | 0.295 | 0.271 | 0.317 | 0.268 | 0.201 | 0.288 | 0.281 | 0.292 | 0.167 | 0.0714 | 1.04 | 0.787 | 0.67 | 0.822 | 0.225
21 | NCI-H1915 | 0.259 | 0.255 | 0.242 | 0.262 | 0.252 | 0.321 | 0.309 | 0.324 | 0.249 | 0.12 | 0.589 | 0.629 | 0.107 | 0.241 | 0.155 | 0.787 | 0.906 | 0.527 | 0.434 | 0.194
22 | NCI-H2405 | 0.9 | 0.891 | 0.866 | 0.792 | 0.639 | 0.753 | 0.625 | 0.518 | 0.283 | 0.277 | 0.696 | 0.601 | 0.552 | 0.312 | 0.307 | 0.915 | 0.86 | 0.491 | 0.572 | 0.304
23 | NCI-H322M | 0.761 | 0.773 | 0.691 | 0.5 | 0.511 | 0.567 | 0.622 | 0.483 | 0.388 | 0.426 | 0.612 | 0.493 | 0.427 | 0.285 | 0.33 | 1.06 | 0.972 | 0.811 | 0.851 | 0.257
24 | NCI-H358 | 0.676 | 0.616 | 0.575 | 0.494 | 0.266 | 0.116 | 0.128 | 0.14 | 0.134 | 0.102 | 0.676 | 0.826 | 0.403 | 0.124 | 0.141 | 0.6 | 0.611 | 0.228 | 0.232 | 0.348
25 | SK-MES-1 | 0.706 | 0.738 | 0.508 | 0.641 | 0.246 | 0.658 | 0.612 | 0.49 | 0.401 | 0.203 | 0.647 | 0.542 | 0.462 | 0.199 | 0.202 | 1.03 | 1.08 | 0.559 | 0.721 | 0.252
26 | NCI-H838 | 0.863 | 0.846 | 0.726 | 0.726 | 0.476 | 0.518 | 0.466 | 0.236 | 0.204 | 0.166 | 0.422 | 0.334 | 0.294 | 0.209 | 0.211 | 0.912 | 0.776 | 0.424 | 0.561 | 0.279
27 | CAL-12T | 0.732 | 0.747 | 0.699 | 0.634 | 0.508 | 0.333 | 0.308 | 0.403 | 0.191 | 0.211 | 0.807 | 0.463 | 0.385 | 0.193 | 0.17 | 0.855 | 0.472 | 0.395 | 0.16 | 0.214
